Experimental data as given in ChEMBL document CHEMBL4765284, “Optimization of 5-substituted thiazolyl ureas and 6-substituted imidazopyridines as potential HIV-1 latency reversing agents” (Eur J Med Chem, 2020).
In brackets after ≈: the same amount, converted by molar mass.

Columns and labels:
[1] = system: Human immunodeficiency virus 1; assay: Antiviral activity against HIV-1 infected in FlpIn-HEK293 cells assessed as activation of long terminal repeat driven gene expression incubated for 72 hrs by luciferase based cellular assay; assay type: functional, organism-based; conditions: Human immunodeficiency virus 1, HEK293, 72 h
[2] = system: Cytomegalovirus; assay: Antiviral activity against CMV infected in FlpIn-HEK293 cells assessed as click beetle green reporter driven gene expression incubated for 72 hrs by luciferase based cellular assay; assay type: functional, organism-based; conditions: HEK293, 72 h
[3] = Metabolic stability in mouse liver microsomes assessed as half life at 1 uM measured upto 60 mins by LC-MS anlaysis; assay type: ADME, Microsome
[4] = Aqueous solubility of compound at pH 6.5 by nephelometry; assay type: physicochemical
[5] = Metabolic stability in human liver microsomes assessed as half life at 1 uM measured upto 60 mins by LC-MS anlaysis; assay type: ADME, Microsome
[6] = Metabolic stability in human liver microsomes assessed as intrinsic clearance at 1 uM measured upto 60 mins by LC-MS analysis; assay type: ADME, Microsome; conditions: read-out: CLH
[7] = Metabolic stability in mouse liver microsomes assessed as intrinsic clearance at 1 uM measured upto 60 mins by LC-MS anlaysis; assay type: ADME, Microsome; conditions: read-out: CLH
[8] = Aqueous solubility of compound at pH 2 by nephelometry; assay type: physicochemical
[9] = system: Human immunodeficiency virus 1; assay: Antiviral activity against HIV-1 infected in J-Lat 10.6 cells assessed as maximal activation of long terminal repeat driven gene expression incubated for 48 hrs by green fluorescent protein based cellular assay; assay type: functional, organism-based; conditions: Human immunodeficiency virus 1, J-Lat 10.6, 48 h
[10] = system: Human immunodeficiency virus 1; assay: Antiviral activity against HIV-1 infected in J-Lat 10.6 cells assessed as maximal activation of long terminal repeat driven gene expression at 1 uM incubated for 48 hrs by green fluorescent protein based cellular assay relative to control; assay type: functional
[11] = system: Human immunodeficiency virus 1; assay: Antiviral activity against HIV-1 infected in FlpIn-HEK293 cells assessed as maximal activation of long terminal repeat driven gene expression at 0.25 uM incubated for 48 hrs by luciferase based cellular assay relative to control; assay type: functional
[12] = Cytotoxicity against human HepG2 cells assessed as growth incubation incubated for 48 hrs by cell titer glo assay; assay type: cell-based

Row | Compound | EC50 [1] [nM] | EC50 [2] [µM] | further results
1 | Cc1cnc(NC(=O)N2CCC[C@@H](Nc3ccc(Cl)c(C)c3)C2)s1 | > 40000 | > 40 | –
2 | Cc1cnc(NC(=O)N2CCN(c3ccc(C)c(Cl)c3)CC2)s1 | 470 | 5 | –
3 | Cc1cnc(NC(=O)N2CC(N(C)c3ccc(C)c(Cl)c3)C2)s1 | 12000 | 16 | –
4 | Cc1ccc(N2CCN(C(=O)Nc3nccs3)CC2)cc1Cl | 3400 | 4 | –
5 | N#Cc1cnc(NC(=O)N2CCN(c3ccc(Cl)cc3)CC2)s1 | 1500 | 3.6 | –
6 | Cc1cnc(NC(=O)N2CCN(c3ccc(C)c(Cl)c3)C(C)C2)s1 (configuration not stated) | 8900 | 6.5 | –
7 | O=C(Nc1ncc(Cl)s1)N1CCN(c2cc(C(F)(F)F)c(Cl)cn2)CC1 | 920 | 1.8 | –
8 | Cc1cnc(NC(=O)N2CCN(c3cnc(C#N)c(C)c3)CC2)s1 | 10000 | 21 | –
9 | Cc1ccc(N2CCN(C(=O)Nc3ncc(C(F)(F)F)s3)CC2)cc1Cl | 1300 | > 2 | –
10 | Cc1cnc(NC(=O)CCCOc2ccc(Cl)c(C)c2)s1 | – | – | half-life at 1 µM [3]: 2 min; solubility kinetic [4]: 1.1 µM (≈ 0.357 µg/mL); half-life at 1 µM [5]: 10 min; microsomal CLint at 1 µM [6]: 175 µL/min/mg; microsomal CLint at 1 µM [7]: 815 µL/min/mg; solubility kinetic [8]: < 1.1 µM
11 | Cc1cnc(NC(=O)N2CC(Oc3ccc(C)c(Cl)c3)C2)s1 | 220 | 1.9 | –
12 | Clc1cnc2[nH]c(CCCOc3ccc(Cl)c(Cl)c3)nc2c1 | 3300 | 1.2 | –
13 | Cc1ccc(N2CCN(C(=O)Nc3ncc(Cl)s3)CC2C)cc1Cl (configuration not stated) | 820 | 3.7 | –
14 | Cc1ccc(N2CCCN(C(=O)Nc3ncc(Cl)s3)CC2)cc1Cl | 22000 | 19 | –
15 | Cc1cnc(NC(=O)N2CCN(c3cc(C)c(C#N)cn3)CC2)s1 | 4200 | > 40 | –
16 | Cc1cnc(NC(=O)N2CCCN(c3ccc(C)c(Cl)c3)CC2)s1 | 10000 | 21 | –
17 | Cc1cnc(NC(=O)N2CCN(c3ccc(Cl)c(C)c3)CC2)s1 | 600 | 2.3 | –
18 | Cc1cc(N2CCN(C(=O)Nc3ncc(C#N)s3)CC2)ccc1Cl | 710 | 2.3 | –
19 | Cc1ccc(N2CCN(C(=O)Nc3ncc(Cl)s3)C(C)C2)cc1Cl (configuration not stated) | 1300 | 1.5 | –
20 | Cc1cc(NC2CCN(C(=O)Nc3ncc(Cl)s3)CC2)ccc1Cl | > 40000 | > 40 | –
21 | O=C(Nc1ncc(Cl)s1)N1CCN(c2cncnc2)CC1 | 8900 | 12 | –
22 | Cc1ccc(OCCCc2nc3cc(Cl)cnc3[nH]2)cc1Cl | 9400 | 12 | half-life at 1 µM [3]: < 2 min; solubility kinetic [4]: < 1.6 µM; half-life at 1 µM [5]: 5 min; microsomal CLint at 1 µM [6]: 329 µL/min/mg; microsomal CLint at 1 µM [7]: > 866 µL/min/mg; solubility kinetic [8]: 1.6 µM (≈ 0.538 µg/mL)
23 | Cc1cc(OC2CCN(C(=O)Nc3ncc(Cl)s3)CC2)ccc1Cl | 20000 | 20 | –

Row | Compound | EC50 [1] [nM] | EC50 [2] [µM] | further results
24 | Cc1cnc(NC(=O)N2CCC(Oc3ccc(Cl)c(C)c3)CC2)s1 | > 40000 | 40 | –
25 | Cc1cnc(NC(=O)N2CCC(Nc3ccc(Cl)c(C)c3)CC2)s1 | > 40000 | 20 | –
26 | Cc1ccc(N2CC3(CN(C(=O)Nc4ncc(Cl)s4)C3)C2)cc1Cl | 16000 | 19 | –
27 | Cc1ccc(N2CCC(C(=O)Nc3ncc(Cl)s3)CC2)cc1Cl | 2000 | > 40 | –
28 | O=C(Nc1ncc(Cl)s1)N1CCN(c2ccc(Cl)c(Cl)c2)CC1 | 310 | 0.8 | –
29 | Cc1cnc(NC(=O)N2CCN(c3ccccc3)CC2)s1 | 1700 | 5 | –
30 | Cc1cnc(NC(=O)N2CCN(c3ccc(Cl)cc3)CC2)s1 | 2700 | 5.5 | –
31 | Cc1cnc(NC(=O)N2CC(Nc3ccc(C)c(Cl)c3)C2)s1 | 670 | 3 | –
32 | Cc1cc(N(C)C2CCN(C(=O)Nc3ncc(Cl)s3)C2)ccc1Cl (configuration not stated) | 11000 | 20 | –
33 | Cc1cc(N2CCN(C(=O)Nc3ncc(Cl)s3)CC2)ncc1C#N | 460 | 1 | –
34 | Cc1cc(OC2CCN(C(=O)Nc3ncc(Cl)s3)C2)ccc1Cl (configuration not stated) | 1500 | 2.5 | –
35 | Cc1ccc(N2CCN(C(=O)Nc3ncc(C#N)s3)CC2)cc1Cl | 240 | 2.3 | –
36 | Cc1ccc(N2CCN(c3nc4cc(Br)cnc4[nH]3)CC2)cc1Cl | 320 | > 0.3 | –
37 | Cc1cnc(NC(=O)N2CCN(c3cccc(C#N)c3)CC2)s1 | 230 | 1.8 | –
38 | Cc1ccc(OC2CN(C(=O)Nc3ncc(Cl)s3)C2)cc1Cl | 530 | 1.9 | –
39 | Clc1cnc2[nH]c(N3CCN(c4ccc(Cl)c(Cl)c4)CC3)nc2c1 | 980 | 2.6 | –
40 | O=C(Nc1ncc(C(F)(F)F)s1)N1CCN(c2cnc(Cl)c(Cl)c2)CC1 | 700 | 0.48 | –
41 | Cc1cnc(NC(=O)N2CCC(Nc3ccc(Cl)c(C)c3)C2)s1 (configuration not stated) | 6200 | 14 | –
42 | Cc1ccc(NC2CN(C(=O)Nc3ncc(Cl)s3)C2)cc1Cl | 230 | 1.7 | half-life at 1 µM [3]: 36 min; solubility kinetic [4]: 1.6 µM (≈ 0.572 µg/mL); EC50 [9]: 1500 nM; %max [10]: 31%; microsomal CLint at 1 µM [7]: 49 µL/min/mg; solubility kinetic [8]: 1.6 µM (≈ 0.572 µg/mL); %max [11]: 63%; CC50 at 48 h [12]: 330 nM
43 | Cc1cnc(NC(=O)N2CCN(c3ccc(Cl)c(Cl)c3)CC2)s1 | 930 | 0.49 | –
44 | Cc1cc(N[C@@H]2CCCN(C(=O)Nc3ncc(Cl)s3)C2)ccc1Cl | > 40000 | > 40 | –
45 | Cc1cnc2[nH]c(CCCOc3ccc(C)c(Cl)c3)nc2c1 | 12000 | 24 | –
46 | Cc1cnc2[nH]c(CCCOc3ccc(Cl)c(Cl)c3)nc2c1 | 14000 | 28 | –

Row | Compound | EC50 [1] [nM] | EC50 [2] [µM] | further results
47 | Cc1ccc(N(C)C2CN(C(=O)Nc3ncc(Cl)s3)C2)cc1Cl | 930 | 2.8 | –
48 | Cc1cnc(NC(=O)N2CCC(Oc3ccc(Cl)c(C)c3)C2)s1 (configuration not stated) | 2000 | 5.2 | –
49 | Cc1cc(OC2CCCN(C(=O)Nc3ncc(Cl)s3)C2)ccc1Cl (configuration not stated) | > 40000 | – | –
50 | Cc1cnc2[nH]c(N3CCN(c4ccc(Cl)c(Cl)c4)CC3)nc2c1 | 750 | 0.82 | –
51 | Cc1cnc2[nH]c(CCCOc3cnc(Cl)c(Cl)c3)nc2c1 | 21000 | 34 | –
52 | Cc1cnc(NC(=O)N2CCN(c3cncnc3)CC2)s1 | > 40000 | > 40 | –
53 | Cc1cc(N2CCN(C(=O)Nc3ncc(Cl)s3)CC2)cnc1C#N | 210 | 0.83 | –
54 | Cc1cnc(NC(=O)N2CCC[C@H](Nc3ccc(Cl)c(C)c3)C2)s1 | > 40000 | – | –
55 | Cc1cnc2sc(CCCOc3ccc(C)c(Cl)c3)nc2c1 | > 40000 | > 40 | –
56 | Cc1cnc(NC(=O)N2CCN(c3cnc(Cl)c(Cl)c3)CC2)s1 | 300 | 0.57 | –
57 | Cc1cnc(NC(=O)C2CCN(c3ccc(C)c(Cl)c3)CC2)s1 | 2500 | > 40 | –
58 | Cc1cnc(NC(=O)N2CCC(N(C)c3ccc(Cl)c(C)c3)C2)s1 (configuration not stated) | > 40000 | 33 | –
59 | Cc1cnc2[nH]c(N3CCN(c4ccc(C)c(Cl)c4)CC3)nc2c1 | 3200 | 2.8 | half-life at 1 µM [3]: 8 min; solubility kinetic [4]: < 1.6 µM; half-life at 1 µM [5]: 15 min; microsomal CLint at 1 µM [6]: 115 µL/min/mg; microsomal CLint at 1 µM [7]: 224 µL/min/mg; solubility kinetic [8]: 50 µM (≈ 17.1 µg/mL)
60 | Cc1ccc(OCCCc2nc3ncc(Cl)cc3s2)cc1Cl | > 40000 | > 40 | –
61 | Cc1cnc(NC(=O)N2CC3(C2)CN(c2ccc(C)c(Cl)c2)C3)s1 | > 40000 | > 40 | –
62 | Cc1cnc2[nH]c(N3CCN(c4cnc(Cl)c(Cl)c4)CC3)nc2c1 | 1300 | 0.13 | –
63 | O=C(Nc1ncc(Cl)s1)N1CCN(c2ccc(Cl)cc2)CC1 | 350 | 1.64 | –
64 | Cc1cnc(NC(=O)N2CCN(c3cc(C(F)(F)F)c(Cl)cn3)CC2)s1 | 730 | > 40 | –
65 | Cc1cc(N2CCN(C(=O)Nc3ncc(Cl)s3)CC2)ccc1Cl | 400 | 0.89 | –
66 | Cc1cc(N[C@H]2CCCN(C(=O)Nc3ncc(Cl)s3)C2)ccc1Cl | > 40000 | – | –
67 | Cc1cnc(NC(=O)N2CCN(c3ccc(C)c(Cl)c3)CC2C)s1 (configuration not stated) | 5000 | 5.2 | –
68 | Cc1cc(N(C)C2CCN(C(=O)Nc3ncc(Cl)s3)CC2)ccc1Cl | > 40000 | > 40 | –
